Source: publication PMC9829398 (Plant Biotechnology Journal, 2022)

What was measured:
Meloidogyne incognita = experiment: Established rice root-knot nematode disease (inhibitor applied after inoculation); format: in vivo; details: irrigated three days after inoculation
Ralstonia solanacearum = format: in vivo, tobacco; details: 5 μM irrigated twice two days after inoculation
tobacco roots = experiment: RNA-seq of tobacco roots (DEGs, GO and KEGG classification and enrichment); format: in vivo
CERK1 = experiment: CERK1-CD kinase activity; format: biochemical, Arabidopsis
Excerpt: Fig. S10. […] (a) Effects of FER inhibitors on the kinase activity of the Arabidopsis receptor kinase PEPR1 and CERK1 cytoplasmic domains (CDs). […] AT1G73080. […] AT3G21630. DMSO (0.05%; v/v) was used as a negative control. The data are shown as the means ± SDs (n = 4). The assay was repeated three times with similar results. ***, […]) Protein purification of PEPR1-CD and CERK1-CD. […] In (c and d), the data are presented as the means ± SDs of three biological replicates.

HERK1‐CD = experiment: HERK1-CD kinase activity (autophosphorylation); format: biochemical, Arabidopsis thaliana; details: 5 μM
[1] = KEGG ko00040 Pentose and glucuronate interconversions
[2] = KEGG ko00052 Galactose metabolism
[3] = KEGG ko00062 Fatty acid elongation
[4] = KEGG ko00071 Fatty acid degradation
[5] = KEGG ko00073 Cutin, suberine and wax biosynthesis
[6] = KEGG ko00100 Steroid biosynthesis
[7] = KEGG ko00250 Alanine, aspartate and glutamate metabolism
[8] = KEGG ko00270 Cysteine and methionine metabolism
[9] = KEGG ko00290 Valine, leucine and isoleucine biosynthesis
[10] = KEGG ko00330 Arginine and proline metabolism
[11] = KEGG ko00350 Tyrosine metabolism
[12] = KEGG ko00360 Phenylalanine metabolism
[13] = KEGG ko00410 beta-Alanine metabolism
[14] = KEGG ko00430 Taurine and hypotaurine metabolism
[15] = KEGG ko00460 Cyanoamino acid metabolism
[16] = KEGG ko00480 Glutathione metabolism
[17] = KEGG ko00500 Starch and sucrose metabolism
[18] = KEGG ko00511 Other glycan degradation
[19] = KEGG ko00520 Amino sugar and nucleotide sugar metabolism
[20] = KEGG ko00531 Glycosaminoglycan degradation
[21] = KEGG ko00561 Glycerolipid metabolism
[22] = KEGG ko00564 Glycerophospholipid metabolism
[23] = KEGG ko00590 Arachidonic acid metabolism
[24] = KEGG ko00591 Linoleic acid metabolism
[25] = KEGG ko00592 alpha-Linolenic acid metabolism
[26] = KEGG ko00603 Glycosphingolipid biosynthesis - globo series
[27] = KEGG ko00604 Glycosphingolipid biosynthesis - ganglio series
[28] = KEGG ko00650 Butanoate metabolism
[29] = KEGG ko00730 Thiamine metabolism
[30] = KEGG ko00760 Nicotinate and nicotinamide metabolism
[31] = KEGG ko00770 Pantothenate and CoA biosynthesis
[32] = KEGG ko00904 Diterpenoid biosynthesis
[33] = KEGG ko00905 Brassinosteroid biosynthesis
[34] = KEGG ko00906 Carotenoid biosynthesis
[35] = KEGG ko00908 Zeatin biosynthesis
[36] = KEGG ko00909 Sesquiterpenoid and triterpenoid biosynthesis
[37] = KEGG ko00910 Nitrogen metabolism
[38] = KEGG ko00940 Phenylpropanoid biosynthesis
[39] = KEGG ko00941 Flavonoid biosynthesis
[40] = KEGG ko00950 Isoquinoline alkaloid biosynthesis
[41] = KEGG ko00960 Tropane, piperidine and pyridine alkaloid biosynthesis
[42] = KEGG ko00980 Metabolism of xenobiotics by cytochrome P450
[43] = KEGG ko00982 Drug metabolism - cytochrome P450
[44] = KEGG ko01040 Biosynthesis of unsaturated fatty acids
[45] = KEGG ko03320 PPAR signaling pathway
[46] = KEGG ko04010 MAPK signaling pathway
[47] = KEGG ko04011 MAPK signaling pathway - yeast
[48] = KEGG ko04020 Calcium signaling pathway
[49] = KEGG ko04022 cGMP-PKG signaling pathway
[50] = KEGG ko04075 Plant hormone signal transduction
[51] = KEGG ko04140 Regulation of autophagy
[52] = KEGG ko04211 Longevity regulating pathway
[53] = KEGG ko04212 Longevity regulating pathway - worm
[54] = KEGG ko04370 VEGF signaling pathway
[55] = KEGG ko04380 Osteoclast differentiation
[56] = KEGG ko04614 Renin-angiotensin system
[57] = KEGG ko04626 Plant-pathogen interaction
[58] = KEGG ko04650 Natural killer cell mediated cytotoxicity
[59] = KEGG ko04660 T cell receptor signaling pathway
[60] = KEGG ko04662 B cell receptor signaling pathway
[61] = KEGG ko04712 Circadian rhythm - plant
[62] = KEGG ko04720 Long-term potentiation
[63] = KEGG ko04723 Retrograde endocannabinoid signaling
[64] = KEGG ko04724 Glutamatergic synapse
[65] = KEGG ko04810 Regulation of actin cytoskeleton
[66] = KEGG ko04920 Adipocytokine signaling pathway
[67] = KEGG ko04921 Oxytocin signaling pathway
[68] = KEGG ko04922 Glucagon signaling pathway
[69] = KEGG ko04974 Protein digestion and absorption
[70] = KEGG ko04975 Fat digestion and absorption
[71] = tobacco roots, 5 μM irrigated twice, coregulated genes, vs DMSO

c1nc2nc(Nc3ccc(N4CCOCC4)cc3)nc(NC3CCCCC3)c2[nH]1 [Reversine]
Effect on established rice root-knot nematode disease (Meloidogyne incognita): could not completely prevent the occurrence of the diseases or cure already diseased plants
Effect on established tobacco bacterial wilt (Ralstonia solanacearum): could not completely prevent the occurrence of the diseases or cure already diseased plants
Enrichment_score (tobacco roots; [1]): 2.934
ListHits (tobacco roots; [1]): 15
Enrichment_score (tobacco roots; [2]): 3.3846
ListHits (tobacco roots; [2]): 8
Enrichment_score (tobacco roots; [3]): 4.956
ListHits (tobacco roots; [3]): 8
Enrichment_score (tobacco roots; [4]): 1.21
ListHits (tobacco roots; [4]): 2
Enrichment_score (tobacco roots; [5]): 7.653
ListHits (tobacco roots; [5]): 15
Enrichment_score (tobacco roots; [6]): 3.7618
ListHits (tobacco roots; [6]): 6
Enrichment_score (tobacco roots; [7]): 2.781
ListHits (tobacco roots; [7]): 7
Enrichment_score (tobacco roots; [8]): 1.037
ListHits (tobacco roots; [8]): 5
Enrichment_score (tobacco roots; [9]): 0.913
ListHits (tobacco roots; [9]): 1
Enrichment_score (tobacco roots; [10]): 1.626
ListHits (tobacco roots; [10]): 4
Enrichment_score (tobacco roots; [11]): 1.051
ListHits (tobacco roots; [11]): 2
Enrichment_score (tobacco roots; [12]): 3.252
ListHits (tobacco roots; [12]): 6
Enrichment_score (tobacco roots; [13]): 0.7434
ListHits (tobacco roots; [13]): 2
Enrichment_score (tobacco roots; [14]): 2.082
ListHits (tobacco roots; [14]): 1
Enrichment_score (tobacco roots; [15]): 1.927
ListHits (tobacco roots; [15]): 5
Enrichment_score (tobacco roots; [16]): 0.8174
ListHits (tobacco roots; [16]): 3
Enrichment_score (tobacco roots; [17]): 2.951
ListHits (tobacco roots; [17]): 33
Enrichment_score (tobacco roots; [18]): 1.531
ListHits (tobacco roots; [18]): 1
Enrichment_score (tobacco roots; [19]): 2.188
ListHits (tobacco roots; [19]): 14
Enrichment_score (tobacco roots; [20]): 1.406
ListHits (tobacco roots; [20]): 1
Enrichment_score (tobacco roots; [21]): 2.775
ListHits (tobacco roots; [21]): 8
Enrichment_score (tobacco roots; [22]): 3.221
ListHits (tobacco roots; [22]): 13
Enrichment_score (tobacco roots; [23]): 3.154
ListHits (tobacco roots; [23]): 2
Enrichment_score (tobacco roots; [24]): 6.195
ListHits (tobacco roots; [24]): 5
Enrichment_score (tobacco roots; [25]): 5.4777
ListHits (tobacco roots; [25]): 12
Enrichment_score (tobacco roots; [26]): 2.739
ListHits (tobacco roots; [26]): 1
Enrichment_score (tobacco roots; [27]): 5.782
ListHits (tobacco roots; [27]): 1
Enrichment_score (tobacco roots; [28]): 2.041
ListHits (tobacco roots; [28]): 2
Enrichment_score (tobacco roots; [29]): 1.859
ListHits (tobacco roots; [29]): 1
Enrichment_score (tobacco roots; [30]): 2.168
ListHits (tobacco roots; [30]): 2
Enrichment_score (tobacco roots; [31]): 0.8531
ListHits (tobacco roots; [31]): 1
Enrichment_score (tobacco roots; [32]): 1.837
ListHits (tobacco roots; [32]): 3
Enrichment_score (tobacco roots; [33]): 1.735
ListHits (tobacco roots; [33]): 1
Enrichment_score (tobacco roots; [34]): 3.294
ListHits (tobacco roots; [34]): 5
Enrichment_score (tobacco roots; [35]): 0.9637
ListHits (tobacco roots; [35]): 2
Enrichment_score (tobacco roots; [36]): 3.186
ListHits (tobacco roots; [36]): 3
Enrichment_score (tobacco roots; [37]): 1.837
ListHits (tobacco roots; [37]): 3
Enrichment_score (tobacco roots; [38]): 6.155
ListHits (tobacco roots; [38]): 55
Enrichment_score (tobacco roots; [39]): 0.9548
ListHits (tobacco roots; [39]): 2
Enrichment_score (tobacco roots; [40]): 1.706
ListHits (tobacco roots; [40]): 2
Enrichment_score (tobacco roots; [41]): 1.652
ListHits (tobacco roots; [41]): 2
Enrichment_score (tobacco roots; [42]): 1.323
ListHits (tobacco roots; [42]): 3
Enrichment_score (tobacco roots; [43]): 1.679
ListHits (tobacco roots; [43]): 4
Enrichment_score (tobacco roots; [44]): 1.369
ListHits (tobacco roots; [44]): 2
Enrichment_score (tobacco roots; KEGG ko02010 ABC transporters): 2.788
ListHits (tobacco roots; KEGG ko02010 ABC transporters): 3
Enrichment_score (tobacco roots; [45]): 1.1072
ListHits (tobacco roots; [45]): 1
Enrichment_score (tobacco roots; [46]): 0.9727
ListHits (tobacco roots; [46]): 2
Enrichment_score (tobacco roots; [47]): 1.665
ListHits (tobacco roots; [47]): 4
Enrichment_score (tobacco roots; [48]): 0.9376
ListHits (tobacco roots; [48]): 2
Enrichment_score (tobacco roots; [49]): 0.7381
ListHits (tobacco roots; [49]): 2
Enrichment_score (tobacco roots; [50]): 1.411
ListHits (tobacco roots; [50]): 18
Enrichment_score (tobacco roots; [51]): 0.6505
ListHits (tobacco roots; [51]): 1
Enrichment_score (tobacco roots; KEGG ko04146 Peroxisome): 1.786
ListHits (tobacco roots; KEGG ko04146 Peroxisome): 7
Enrichment_score (tobacco roots; [52]): 1.229
ListHits (tobacco roots; [52]): 3
Enrichment_score (tobacco roots; [53]): 1.436
ListHits (tobacco roots; [53]): 4
Enrichment_score (tobacco roots; KEGG ko04360 Axon guidance): 1.183
ListHits (tobacco roots; KEGG ko04360 Axon guidance): 2
Enrichment_score (tobacco roots; [54]): 1.8259
ListHits (tobacco roots; [54]): 2
Enrichment_score (tobacco roots; [55]): 1.8259
ListHits (tobacco roots; [55]): 2
Enrichment_score (tobacco roots; [56]): 7.434
ListHits (tobacco roots; [56]): 2
Enrichment_score (tobacco roots; [57]): 1.449
ListHits (tobacco roots; [57]): 12
Enrichment_score (tobacco roots; [58]): 1.9637
ListHits (tobacco roots; [58]): 2
Enrichment_score (tobacco roots; [59]): 2.365
ListHits (tobacco roots; [59]): 2
Enrichment_score (tobacco roots; [60]): 1.794
ListHits (tobacco roots; [60]): 2
Enrichment_score (tobacco roots; [61]): 1.03
ListHits (tobacco roots; [61]): 2
Enrichment_score (tobacco roots; [62]): 1.352
ListHits (tobacco roots; [62]): 2
Enrichment_score (tobacco roots; [63]): 1.239
ListHits (tobacco roots; [63]): 1
Enrichment_score (tobacco roots; [64]): 2.42
ListHits (tobacco roots; [64]): 4
Enrichment_score (tobacco roots; KEGG ko04727 GABAergic synapse): 1.466
ListHits (tobacco roots; KEGG ko04727 GABAergic synapse): 2
Enrichment_score (tobacco roots; [65]): 1.14
ListHits (tobacco roots; [65]): 3
Enrichment_score (tobacco roots; [66]): 2.775
ListHits (tobacco roots; [66]): 4
Enrichment_score (tobacco roots; [67]): 0.8531
ListHits (tobacco roots; [67]): 2
Enrichment_score (tobacco roots; [68]): 0.5913
ListHits (tobacco roots; [68]): 2
Enrichment_score (tobacco roots; KEGG ko04924 Renin secretion): 1.859
ListHits (tobacco roots; KEGG ko04924 Renin secretion): 2
Enrichment_score (tobacco roots; [69]): 6.938
ListHits (tobacco roots; [69]): 2
Enrichment_score (tobacco roots; [70]): 4.337
ListHits (tobacco roots; [70]): 1
Enrichment_score (tobacco roots; KEGG ko04976 Bile secretion): 2.838
ListHits (tobacco roots; KEGG ko04976 Bile secretion): 3
Expression levels of growth-related genes in tobacco roots (tobacco roots; RNA-seq, GO growth, vs DMSO): differentially elevated the expression levels of most growth‐related genes
Expression levels of RBOHs, MYB44, TGA2, WRKY19, EFR, FLS2, PR1 and PDF1.4 in tobacco roots (tobacco roots; RNA-seq, vs DMSO): significantly increased the expression levels
Antioxidant genes (GO antioxidant activity) up-regulated (tobacco roots; [71]): 60 of 61
Immune genes (GO immune system process) up-regulated (tobacco roots; [71]): 70 of 82
Environmental adaptation-related genes (KEGG) up-regulated (tobacco roots; tobacco roots, coregulated genes, vs DMSO): 22 of 29
Effect on CERK1 kinase activity (CERK1): did not affect the kinase activity
Inhibition rate of HERK1-CD kinase activity (HERK1‐CD): lower than 55%
